Source: patent publication US20250241942A1, “METHODS OF SYNTHESIZING CONDUCTIVE POLYMERS IN BIOLOGICAL SYSTEMS AND METHODS OF USING CONDUCTIVE POLYMERS” (Purdue Research Foundation, priority 2024, published 2025)
Where two headings read alike, the source gives them in different places.

How the values were obtained:
[1] = Subcutaneous administration of BDF and n-PBDF solutions in mice, observation and complete blood count; conditions: mouse, in vivo, sc
Description: Furthermore, the non-toxicity of the polymerization process and the resulting polymer was confirmed by subcutaneously administering BDF and n-PBDF solutions in mice. […] The investigations reported below explored the use of n-PBDF to modulate the neural activity of cortical pyramidal neurons in mice acute brain slices, showing the interaction of n-PBDF with the neurons at a cellular level, leading to a decrease in the intrinsic excitability of the neurons. […] These and other aspects of the method will be more fully appreciated from the following discussion of the investigations.

A549 lung cancer cells = type: cell-based
Description: Because the BDF monomer can lyse the RBCs, the cytotoxicity of the BDF monomer and n-PBDF in A549 lung cancer cells was further studied. It was observed that the n-PBDF polymer is non-toxic to cancer cells, with cell viability remaining close to 100% regardless of the polymer concentration. […] Although the BDF monomer is toxic in cancer cells, it may not impede the in vivo polymerization process, as once the polymerization reaction begins, the toxicity quickly diminishes.

red blood cells = test: Hemolysis assay on reaction components; type: cell-based; conditions: 0.2 mg/mL
Experimental: To evaluate the efficacy of polymerization without the need for constant stirring, a method was employed whereby the solution was placed in an incubator with a rocker at 37° C. Upon introduction of whole blood into the reaction vessel without stirring, a sluggish reaction was observed, and the vessel turned black after three hours into the reaction. […] Based on these observations from the reaction without stirring, it was deduced the lysis of the RBCs with the BDF monomer. To confirm, a hemolysis assay was used on the various reaction components and with different BDF concentrations. […] This explained the initial slow reaction and formation of n-PBDF without stirring.

[2] = Solubility of BDF monomer; type: physicochemical
Description: Though existing methods of synthesizing n-PBDF are efficient, they are unsuitable within living systems. […] Existing synthesis methods also require high temperatures and employ dimethyl sulfoxide (DMSO) as a solvent. To overcome this limitation, methods were investigated for synthesizing n-PBDF in aqueous media using surfactants, which are also utilized in the synthesis of conductive polymer nanoparticles. […] Using TPGS as a surfactant, n-PBDF can be polymerized in aqueous media through emulsion polymerization. By incorporating an insignificant amount (5%) of DMSO and 1% w/w TPGS, this method was found suitable for use in biological systems, as discussed below.

zebrafish embryos = test: BDF injection into the vasculature of zebrafish embryos, in vivo polymerization and viability
Experimental: Finally, BDF monomer with 1% w/w TPGS in the PBS media solution was injected in the vasculature of 3-day post-fertilization zebrafish embryos to validate the whole blood catalyzed in vivo polymerization of BDF to synthesize n-PBDF. The fish embryos were injected at the end of the tail (FIG. 5A) with different BDF concentrations from 1 mM to 15 mM and kept inside an incubator at 34° C. […] To prevent the misconception of pigmentation in the skin of the embryos as a darkened yolk, zebrafish embryos were treated with 1-phenyl 2-thiourea (PTU). PTU treatment removed the pigment from the skin, allowing for better visualization of the darkening of the embryo's yolk (FIG. 5C). In the case of a 1 mM BDF concentration injection, a clear yolk was observed similar to that seen in control zebrafish embryos. Significant darkening happened when the concentration was increased to 10 mM. Furthermore, 15 mM BDF concentration was injected into the zebrafish embryo, where the yolk was even darker with respect to the 10 mM BDF concentration injection. To characterize the darkened yolk, UV-Vis-NIR measurements were collected on all zebrafish embryos with different concentrations of BDF injections along with the control fish (only PBS injection). […]

[3] = test system: primary motor cortex (M1); parameters: species or system mice; conditions: mouse, in vivo

Molecule | complete blood count (CBC), signs of acute toxicity [1] | physical stress or discomfort [1] | cell viability (A549 lung cancer cells) | cell viability (A549 lung cancer cells; human, 72 h, 5 μg/mL) | cell viability (A549 lung cancer cells; human, 72 h, 0.167 mg/mL) | hemolysis (red blood cells) | solubility in aqueous media ([2]; aqueous media) | solubility in organic solvents ([2]; organic solvents) | embryos alive (zebrafish embryos; after 24 h incubation, BDF 1 mM to 15 mM, 34° C.) | toxicity of BDF injection and in vivo polymerization (zebrafish embryos; zebrafish embryos) | retention at the injection site [3]
O=C1Cc2cc3c(cc2O1)CC(=O)O3 [BDF, 3,7-dihydrobenzo[1,2-b:4,5-b′]difuran-2,6-dione] | no signs of acute toxicity except for a minor level of hemolysis | No physical stress or discomfort was observed | slightly improved cell viability at higher concentrations | approximately 75% | around 10% | approximately 40% | insoluble | limited solubility | at least 80% | almost no toxicity | –
n-doped poly(3,7-dihydrobenzo[1,2-b:4,5-b′]difuran-2,6-dione [n-PBDF] | – | – | ~100% | – | – | – | – | – | – | – | remained in the injection site for extended periods
